The source of these data is patent US20260226068A1, “IMIDAZOTRIAZINE IL-17A MODULATORS AND USES THEREOF” (DICE ALPHA, INC., priority 2023, published 2026).

Structures are written as SMILES.

The target in assay [1] is T1, IL-17A/A (Homo sapiens, UniProt Q16552).
T1 construct: purchased Genscript Z03228
T1 sequence (Q16552 24-155): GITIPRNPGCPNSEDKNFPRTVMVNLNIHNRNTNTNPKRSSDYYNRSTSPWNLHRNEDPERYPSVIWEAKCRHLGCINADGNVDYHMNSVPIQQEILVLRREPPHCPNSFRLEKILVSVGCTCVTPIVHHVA
Description: IL-17A/A HEK-Blue cell assay (SEAP reporter). In kind it is cell-based. The settings on record: HEK-Blue IL-17A reporter cells, IL17A/A 5 ng/mL, 20 hours, SEAP read at A630; read-out: HEK-Blue IL17AA (IC50 for IL-17A/A inhibition). How it is done:
(§1) The HEK-Blue IL-17A reporter cell line (Fisher #NC 1408637) was used for cell-based IL-17A/A inhibition assays. Cells were grown and prepared for assays according to the manufacturer's instructions. This cell line consists of HEK 293 cells that were designed to expressed IL-17RA, IL-17RC, and the Act1 adapter molecule, the combination of which, when stimulated by IL-17A/A or IL17A/F activates a […] promoter and drives expression of the recombinant Secreted Alkaline Phosphatase (SEAP) gene. Media from the cells is then added to a development reagent (Quanti-Blue Substrate, Fisher #NC971 1613), and read at A630.
(§2) Compounds were dispensed in DMSO to an empty clear 384-well tissue culture plate in a titration ranging from 10 μM to 27 pM, with DMSO added to every well to a final concentration of […]. Cells were then added to the plate (45 μL/well at a concentration of 280,000 cells/mL). IL17A/A (Genscript #Z03228) or IL17A/F (R&D Systems) was added to the plate to a final concentration of 5 ng/mL and a final well volume of 50 μL. The cells, compound, and IL-17A/A or IL17A/F were then incubated for 20 hours before media was removed for SEAP analysis. The resulting inhibition curve was then analyzed using Dotmatics' integrated 4-parameter fit screening protocol to generate IC50 values.
(§3) Table 2 includes IC50 values for IL-17A/A and IL-17A/F inhibition of selected compounds; with compounds having a IC50 of A<100 nM; B 100-1000 nM; and C>1000 nM.

Assay [2] has as its target T2, IL-17A/F (Homo sapiens, UniProt Q16552+Q96PD4).
T2 construct: purchased R&D Systems
T2 sequence (Q16552 24-155): T1 sequence (Q16552 24-155)
T2 sequence (Q96PD4 31-163): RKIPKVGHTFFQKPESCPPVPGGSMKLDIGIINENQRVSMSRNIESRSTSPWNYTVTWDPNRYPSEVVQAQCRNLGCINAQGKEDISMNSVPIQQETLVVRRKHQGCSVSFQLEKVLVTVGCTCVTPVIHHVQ
Nature of the assay: IL-17A/F HEK-Blue cell assay (SEAP reporter). The settings on record: HEK-Blue IL-17A reporter cells, IL17A/F 5 ng/mL, 20 hours, SEAP read at A630; read-out: HEK-Blue IL17AF (IC50 for IL-17A/F inhibition). In kind it is cell-based. On the procedure:
as §1, §2, §3

With `CCn1nccc1C(=O)N[C@H](c1cn2nc(CC3C[C@@H](C(F)(F)F)CNC3=O)c(N3CCOCC3)nc2n1)C1CCC(F)(F)CC1` (mixture of isomers) [Compound 19, N-((1S)-(4,4-difluorocyclohexyl)(3-morpholino-2-(((5R)-2-oxo-5-(trifluoromethyl)piperidin-3-yl)methyl)imidazo[1,2-b][1,2,4]triazin-6-yl)methyl)-1-ethyl-1H-pyrazole-5-carboxamide], the figures for the IC50 in assay [1] and in assay [2] were 0.1 to 1 µM and more than 1 µM, respectively. With `CCn1nccc1C(=O)N[C@H](c1cn2nc(CC3C[C@@H](C(F)(F)F)CNC3=O)cnc2n1)[C@H]1CC[C@H](C)CC1` (single isomer, unassigned) [Compound 1], the IC50 is less than 0.1 µM in assay [1] and more than 1 µM in assay [2]. For `CCn1nccc1C(=O)N[C@H](c1cn2nc(CC3C[C@@H](C(F)(F)F)CNC3=O)cnc2n1)[C@H]1CC[C@H](C)CC1` (single isomer, unassigned) [Compound 2], in that order: 0.1 to 1 µM and more than 1 µM. For `CCn1nccc1C(=O)N[C@H](c1cn2nc(CC3C[C@@H](C(F)(F)F)CNC3=O)cnc2n1)C1CCC(F)(F)CC1` (single isomer, unassigned) [Compound 4], in that order: less than 0.1 µM and more than 1 µM. For `CCn1nccc1C(=O)N[C@H](c1cn2nc(CC3C[C@@H](C(F)(F)F)CNC3=O)cnc2n1)C1CCC(F)(F)CC1` (single isomer, unassigned) [Compound 5], in that order: 0.1 to 1 µM and more than 1 µM. For the compound `CCn1nccc1C(=O)N[C@H](c1cn2nc(CC3C[C@@H](C(F)(F)F)CNC3=O)c(N3CCOCC3)nc2n1)C1CCC(F)(F)CC1` (single isomer, unassigned) [Compound 17], the IC50 in assay [1] was less than 0.1 µM; in assay [2], 0.1 to 1 µM. The matching figures for `CCn1nccc1C(=O)N[C@H](c1cn2nc(CC3C[C@@H](C(F)(F)F)CNC3=O)c(N3CCOCC3)nc2n1)C1CCC(F)(F)CC1` (single isomer, unassigned) [Compound 18]: less than 0.1 µM and more than 1 µM. The matching figures for `O=C(N[C@H](c1cn2nc(CC3C[C@@H](C(F)(F)F)CNC3=O)c(N3CCOCC3)nc2n1)C1CCC(F)(F)CC1)c1nonc1C1CC1` (single isomer, unassigned) [Compound 20]: less than 0.1 µM and more than 1 µM. Turning to `O=C(N[C@H](c1cn2nc(CC3C[C@@H](C(F)(F)F)CNC3=O)c(N3CCOCC3)nc2n1)C1CCC(F)(F)CC1)c1nonc1C1CC1` (single isomer, unassigned) [Compound 21], the IC50 is less than 0.1 µM in assay [1] and more than 1 µM in assay [2]. `CCn1nccc1C(=O)N[C@H](c1cn2nc(CC3C[C@@H](C(F)(F)F)CNC3=O)c(N3CCOCC3)nc2n1)[C@H]1CC[C@H](C)CC1` (single isomer, unassigned) [Compound 22]: the IC50 in assay [1] was less than 0.1 µM; in assay [2], 0.1 to 1 µM.

For `CCn1nccc1C(=O)N[C@H](c1cn2nc(CC3C[C@@H](C(F)(F)F)CNC3=O)c(N3CCOCC3)nc2n1)[C@H]1CC[C@H](C)CC1` (single isomer, unassigned) [Compound 23], the results for the IC50 in assay [1] and in assay [2] were less than 0.1 µM and more than 1 µM, respectively.

Turning to `CCn1nccc1C(=O)N[C@H](c1cn2nc(C[C@H]3C[C@@H](C(F)(F)F)CNC3=O)cnc2n1)[C@@H]1CCCC(F)(F)C1` (single isomer, unassigned) [Compound 31], the IC50 in assay [1] is 0.1 to 1 µM; in assay [2], more than 1 µM. For `O=C(N[C@H](c1cn2nc(C[C@@H]3C[C@@H](C(F)(F)F)CNC3=O)cnc2n1)C1CCC(F)(F)CC1)c1nonc1C1CC1` (single isomer, unassigned) [Compound 33], the results for the IC50 in assay [1] and in assay [2] were 0.1 to 1 µM and more than 1 µM, respectively. For `CCn1nccc1C(=O)N[C@H](c1cn2nc(CC3C[C@@H](C(F)(F)F)CNC3=O)c(N(C)C)nc2n1)C1CCC(F)(F)CC1` (single isomer, unassigned) [Compound 48], in that order: less than 0.1 µM and 0.1 to 1 µM. Consider `CCn1nccc1C(=O)N[C@H](c1cn2nc(CC3C[C@@H](C(F)(F)F)CNC3=O)c(N(C)C)nc2n1)C1CCC(F)(F)CC1` (single isomer, unassigned) [Compound 49], for which the IC50 was less than 0.1 µM in assay [1] and more than 1 µM in assay [2]. The matching figures for `CCn1nccc1C(=O)N[C@H](c1cn2nc(CC3C[C@H](C(F)(F)F)CNC3=O)c(N3CCOCC3)nc2n1)C1CCC(F)(F)CC1` (single isomer, unassigned) [Compound 50]: 0.1 to 1 µM and more than 1 µM. For `CCn1nccc1C(=O)N[C@H](c1cn2nc(CC3C[C@H](C(F)(F)F)CNC3=O)c(N(C)C)nc2n1)C1CCC(F)(F)CC1` (single isomer, unassigned) [Compound 51], in that order: 0.1 to 1 µM and more than 1 µM.

With `CCn1nccc1C(=O)N[C@H](c1cn2nc(CC3C[C@H](C(F)(F)F)CNC3=O)c(N3CCOCC3)nc2n1)C1CCC(F)(F)CC1` (single isomer, unassigned) [Compound 54], the IC50 in assay [1] was less than 0.1 µM; in assay [2], 0.1 to 1 µM. The matching figures for `CCn1nccc1C(=O)N[C@H](c1cn2nc(CC3C[C@H](C(F)(F)F)CNC3=O)c(N(C)C)nc2n1)C1CCC(F)(F)CC1` (single isomer, unassigned) [Compound 55]: less than 0.1 µM and 0.1 to 1 µM. Regarding `CCn1nccc1C(=O)N[C@H](c1cn2nc(C[C@H]3C[C@@H](C(F)(F)F)CNC3=O)c(C3CCOC3)nc2n1)C1CCC(F)(F)CC1` (single isomer, unassigned) [Compound 61], the results for the IC50 in assay [1] and in assay [2] were less than 0.1 µM and 0.1 to 1 µM, respectively.

With `CCn1nccc1C(=O)N[C@H](c1cn2nc(CC3C[C@H](C(F)(F)F)CNC3=O)cnc2n1)C1CCC(F)(F)CC1` (stereo partly drawn) [Compound 14, N—((S)-(4,4-difluorocyclohexyl)(2-(((5S)-2-oxo-5-(trifluoromethyl)piperidin-3-yl)methyl)imidazo[1,2-b][1,2,4]triazin-6-yl)methyl)-1-ethyl-1H-pyrazole-5-carboxamide], the IC50 in assay [1] lay in the range of 0.1 to 1 µM. The same measure, in the same setting: under `CCn1nccc1C(=O)N[C@H](c1cn2nc(C[C@H]3C[C@H](C(F)(F)F)CNC3=O)cnc2n1)C1CCC(F)(F)CC1` [Compound 52] stands 0.1 to 1 µM. Turning to `CC(C)n1nccc1C(=O)N[C@H](c1cn2nc(C[C@@H]3C[C@@H](C(F)(F)F)CNC3=O)cnc2n1)C1CCC(F)(F)CC1` [Compound 202], the IC50 in assay [1] was 0.1 to 1 µM.

As for `CCn1nccc1C(=O)N[C@H](c1cn2nc(C[C@H]3C[C@@H](C(F)(F)F)CNC3=O)c(C(C)(C)F)nc2n1)C1CCC(F)(F)CC1` [Compound 233, N—((S)-(4,4-difluorocyclohexyl)(3-(2-fluoropropan-2-yl)-2-(((3R,5R)-2-oxo-5-(trifluoromethyl)piperidin-3-yl)methyl)imidazo[1,2-b][1,2,4]triazin-6-yl)methyl)-1-ethyl-1H-pyrazole-5-carboxamide], in assay [1], the IC50 is less than 0.1 µM. Same read-out and setting: under `CC(F)(F)C(=O)N[C@H](c1cn2nc(C[C@H]3C[C@@H](C(F)(F)F)CNC3=O)c(C3CCOCC3)nc2n1)C1CCC(F)(F)CC1` [Compound 438, N—((S)-(4,4-difluorocyclohexyl)(2-(((3R,5R)-2-oxo-5-(trifluoromethyl)piperidin-3-yl)methyl)-3-(tetrahydro-2H-pyran-4-yl)imidazo[1,2-b][1,2,4]triazin-6-yl)methyl)-2,2-difluoropropanamide] stands 0.1 to 1 µM.
